Experimental data as given in PubChem BioAssay (NCI).
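Briefly, cells in 96-well plates were exposed to five compound concentrations for 48 h, and endpoints were estimated by linear interpolation. TGI marks complete inhibition of growth.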

Experiments:
Assay in all cases: NCI tumour cell line growth inhibition, 48 h
A549 NSCLC = test system: A549 NSCLC
DLD-1 colon = test system: DLD-1 colon
NCI-H460 lung = test system: NCI-H460 lung
SNB-19 CNS = test system: SNB-19 CNS
SK-MEL-28 melanoma = test system: SK-MEL-28 melanoma
OVCAR-5 ovarian = test system: OVCAR-5 ovarian
KM20L2 colon = test system: KM20L2 colon
SNB-75 CNS = test system: SNB-75 CNS
SNB-78 CNS = test system: SNB-78 CNS
EKVX NSCLC = test system: EKVX NSCLC
DMS 114 small cell lung = test system: DMS 114 small cell lung
SK-MEL-5 melanoma = test system: SK-MEL-5 melanoma
HCC-2998 colon = test system: HCC-2998 colon
MALME-3M melanoma = test system: MALME-3M melanoma
CAKI-1 renal = test system: CAKI-1 renal
K-562 leukemia = test system: K-562 leukemia
SN12C renal = test system: SN12C renal
OVCAR-4 ovarian = test system: OVCAR-4 ovarian
HCT-116 colon = test system: HCT-116 colon
HL-60(TB) leukemia = test system: HL-60(TB) leukemia
HT29 colon = test system: HT29 colon
M19-MEL melanoma = test system: M19-MEL melanoma
U251 CNS = test system: U251 CNS
UACC-62 melanoma = test system: UACC-62 melanoma
OVCAR-3 ovarian = test system: OVCAR-3 ovarian
NCI-H23 lung = test system: NCI-H23 lung
OVCAR-8 ovarian = test system: OVCAR-8 ovarian
LXFL 529 NSCLC = test system: LXFL 529 NSCLC
COLO 205 colon = test system: COLO 205 colon
NCI-H226 lung = test system: NCI-H226 lung
M14 melanoma = test system: M14 melanoma
UO-31 renal = test system: UO-31 renal
HCT-15 colon = test system: HCT-15 colon
786-0 renal = test system: 786-0 renal
MOLT-4 leukemia = test system: MOLT-4 leukemia
HOP-62 NSCLC = test system: HOP-62 NSCLC
SF-539 CNS = test system: SF-539 CNS
ACHN renal = test system: ACHN renal
SF-268 CNS = test system: SF-268 CNS
SR leukemia = test system: SR leukemia
SF-295 CNS = test system: SF-295 CNS
LOX IMVI melanoma = test system: LOX IMVI melanoma
NCI-H522 lung = test system: NCI-H522 lung
RXF-631 renal = test system: RXF-631 renal
CCRF-CEM leukemia = test system: CCRF-CEM leukemia
HOP-92 NSCLC = test system: HOP-92 NSCLC
HOP-18 NSCLC = test system: HOP-18 NSCLC
UACC-257 melanoma = test system: UACC-257 melanoma
TK-10 renal = test system: TK-10 renal
KM12 colon = test system: KM12 colon
XF 498 CNS = test system: XF 498 CNS
SK-OV-3 ovarian = test system: SK-OV-3 ovarian
DMS 273 small cell lung = test system: DMS 273 small cell lung
SK-MEL-2 melanoma = test system: SK-MEL-2 melanoma
IGROV1 ovarian = test system: IGROV1 ovarian
SW-620 colon = test system: SW-620 colon
RXF 393 renal = test system: RXF 393 renal
RPMI-8226 leukemia = test system: RPMI-8226 leukemia
A498 renal = test system: A498 renal

In the case of `CCCCC/C=C1\CCC(CN(C)C)C1=O` (stereo unspecified), the TGI (A549 NSCLC) is reported as greater than 63.5 µM, the TGI (DLD-1 colon) is reported as 14.4 µM and the TGI (NCI-H460 lung) is reported as greater than 100 µM. It also gave a TGI (SNB-19 CNS) of 36.9 µM, a TGI (SK-MEL-28 melanoma) of 23.9 µM and a TGI (OVCAR-5 ovarian) of 33.7 µM. For the same compound, the TGI (KM20L2 colon) was 30.1 µM, the TGI (SNB-75 CNS) was 32.3 µM and the TGI (SNB-78 CNS) was 58.7 µM. For the same compound, the TGI (EKVX NSCLC) was greater than 56.3 µM, the TGI (DMS 114 small cell lung) was 29 µM and the TGI (SK-MEL-5 melanoma) was 34.3 µM. The TGI (HCC-2998 colon) was 31 µM, the TGI (MALME-3M melanoma) was 28.7 µM and the TGI (CAKI-1 renal) was 18.4 µM. The TGI (K-562 leukemia) was 28.2 µM, the TGI (SN12C renal) was 30.1 µM and the TGI (OVCAR-4 ovarian) was 42.2 µM. The TGI (HCT-116 colon) was 25 µM, the TGI (HL-60(TB) leukemia) was 30.3 µM and the TGI (HT29 colon) was 62.3 µM. The TGI (M19-MEL melanoma) was 26.6 µM, the TGI (U251 CNS) was 20.7 µM and the TGI (UACC-62 melanoma) was 29.4 µM. For the same compound, the TGI (OVCAR-3 ovarian) was 30.7 µM, the TGI (NCI-H23 lung) was 34.6 µM and the TGI (OVCAR-8 ovarian) was greater than 41.7 µM. The TGI (LXFL 529 NSCLC) was 3.9 µM, the TGI (COLO 205 colon) was 22.6 µM and the TGI (NCI-H226 lung) was 29.5 µM. For the same compound, the TGI (M14 melanoma) was 28.1 µM, the TGI (UO-31 renal) was 31.4 µM and the TGI (HCT-15 colon) was 10 µM. For the same compound, the TGI (786-0 renal) was 7.02 µM, the TGI (MOLT-4 leukemia) was 30.8 µM and the TGI (HOP-62 NSCLC) was 31.7 µM. The TGI (SF-539 CNS) was 24.1 µM, the TGI (ACHN renal) was 27.3 µM and the TGI (SF-268 CNS) was 41.4 µM. It also gave a TGI (SR leukemia) of 21.6 µM, a TGI (SF-295 CNS) of 40.9 µM and a TGI (LOX IMVI melanoma) of 20.6 µM. The TGI (NCI-H522 lung) was 13.4 µM, the TGI (RXF-631 renal) was 28.3 µM and the TGI (CCRF-CEM leukemia) was 18.5 µM. It also gave a TGI (HOP-92 NSCLC) of 27.1 µM, a TGI (HOP-18 NSCLC) of 39.4 µM and a TGI (UACC-257 melanoma) of 32.2 µM. It also gave a TGI (TK-10 renal) greater than 40.1 µM, a TGI (KM12 colon) of 17 µM and a TGI (XF 498 CNS) of 28.3 µM. It also gave a TGI (SK-OV-3 ovarian) of 27.4 µM, a TGI (DMS 273 small cell lung) of 34 µM and a TGI (SK-MEL-2 melanoma) of 34.7 µM. For the same compound, the TGI (IGROV1 ovarian) was 32.6 µM and the TGI (SW-620 colon) was 11.7 µM.

`Nc1ccn(C2OC(C(O)CO)C(O)C2O)c(=O)n1` (stereo unspecified) was tested, and the TGI (A549 NSCLC) was greater than 100 µM, the TGI (DLD-1 colon) was greater than 100 µM and the TGI (NCI-H460 lung) was greater than 100 µM. For the same compound, the TGI (SK-MEL-28 melanoma) was greater than 100 µM, the TGI (KM20L2 colon) was greater than 100 µM and the TGI (EKVX NSCLC) was greater than 100 µM. The TGI (DMS 114 small cell lung) was greater than 100 µM, the TGI (SK-MEL-5 melanoma) was greater than 100 µM and the TGI (K-562 leukemia) was greater than 100 µM. The TGI (SN12C renal) was greater than 100 µM, the TGI (HCT-116 colon) was greater than 100 µM and the TGI (HL-60(TB) leukemia) was greater than 100 µM. It also gave a TGI (U251 CNS) greater than 100 µM, a TGI (RXF 393 renal) greater than 100 µM and a TGI (NCI-H23 lung) greater than 100 µM. The TGI (OVCAR-8 ovarian) was greater than 100 µM, the TGI (LXFL 529 NSCLC) was greater than 100 µM and the TGI (COLO 205 colon) was greater than 100 µM. It also gave a TGI (M14 melanoma) greater than 100 µM, a TGI (UO-31 renal) greater than 100 µM and a TGI (HCT-15 colon) greater than 100 µM. The TGI (MOLT-4 leukemia) was greater than 100 µM, the TGI (HOP-62 NSCLC) was greater than 100 µM and the TGI (SF-539 CNS) was greater than 100 µM. It also gave a TGI (ACHN renal) greater than 100 µM, a TGI (SF-268 CNS) greater than 100 µM and a TGI (RPMI-8226 leukemia) greater than 100 µM. For the same compound, the TGI (SF-295 CNS) was greater than 100 µM, the TGI (LOX IMVI melanoma) was greater than 100 µM and the TGI (NCI-H522 lung) was greater than 100 µM. It also gave a TGI (RXF-631 renal) greater than 100 µM, a TGI (CCRF-CEM leukemia) greater than 100 µM and a TGI (HOP-92 NSCLC) greater than 100 µM. It also gave a TGI (HOP-18 NSCLC) greater than 100 µM, a TGI (A498 renal) greater than 100 µM and a TGI (TK-10 renal) greater than 100 µM. The TGI (XF 498 CNS) was greater than 100 µM, the TGI (SK-OV-3 ovarian) was greater than 100 µM and the TGI (DMS 273 small cell lung) was greater than 100 µM. For the same compound, the TGI (SW-620 colon) was greater than 100 µM.
